This is an account of results in patent US7371921B2, “Nonhuman animal model non-responsive to mycoplasma-origin lipoprotein/lipopeptide” (Japan Science and Technology Agency, priority 2000, dated 2008).

The test system of experiment [1] is peritoneal macrophages. Description: TNFá production by peritoneal macrophages in response to lipoprotein, LPS or PGN (ELISA). Format: cell-based. The note with it: macrophages from TLR6 knockout mouse (TLR6−/−) compared with wild-type; 24 hours; 10 μM lipoprotein, 100 ng/ml LPS, various concentrations of PGN; FIG. 3. The procedure: (§1) Each of wild-type (wild-type), TLR6 knockout (TLR6−/−) and TLR2 knockout (TLR2−/−) mice were intraperitoneally injected with 2 ml of 4% thioglycollate medium (DIFCO). Three days later, peritoneal exudate cells were isolated from the peritoneal cavity of each mouse. These cells were cultured in RPMI1640 medium (GIBCO) supplemented with 10% fetal bovine serum (GIBCO) for 2 hours at 37° C. and washed with ice-cold Hank's buffered salt solution (HBSS; GIBCO) to remove nonadherent cells. Adherent cells were used as peritoneal macrophages for the following experiments.
Therefore, responsiveness of TLR6 knockout mouse to these LPS, lipoprotein derived from Spirochaeta, and peptidoglycan derived from Staphylococcus aureus was examined. Peritoneal macrophages (5×10^4 cells) of wild-type and TLR6 knockout mice prepared in Example 2 were cultured for 24 hours together with 10 μM B. burgdorferi-derived lipoprotein OspA or OspC, 10 μM T. pallidum-derived lipoprotein 17-kDa (17) or 47-kDa (47), 100 ng/ml LPS, or various concentrations of peptidoglycan (PGN) shown in FIG. 3. When culture was completed, concentrations of TNFá in culture supernatants were measured by ELISA respectively.
A general note: In an ELISA, binding on a coated surface is turned into a signal by an enzyme label.

Experiment [2] deals with peritoneal macrophages. Description: NO2^− production by peritoneal macrophages stimulated with lipopeptide (Greiss method). The format is cell-based, mouse. The note with it: 24 hours, various concentrations, FIG. 4. The procedure:
as §1
(§2) Responsiveness of peritoneal macrophages derived from a wild-type mouse or a TLR6 knockout mouse to lipopeptide was examined with synthetic Gram negative bacteria-derived lipopeptide JBT3002 and synthetic mycoplasma-derived lipopeptide MALP-2. Peritoneal macrophages (5×10^4 cells) of wild-type and TLR6 knockout mice prepared in Example 2 were cultured for 24 hours together with various concentrations of JBT3002 (provided by Dr. Z. Dong) or MALP-2 (provided by Dr. P. F. Muhlradt) shown in FIG. 4, and stimulated. When culture was completed, the production amounts of TNF-á (TNFá) and NO2^− (NO) in culture supernatants were measured (FIG. 4). NO2^− was measured by the Greiss method using NO2/NO3 Assay Kit (Dojindo Laboratories).

Experiment [3] has as its system peritoneal macrophages. Description: TNF-á production by peritoneal macrophages stimulated with lipopeptide. The format is cell-based, mouse. The note with it: 24 hours, various concentrations, FIG. 4. The procedure: as §1, §2
The subject of the next experiment is NF-êB. Description: NF-êB activation in peritoneal macrophages (nucleoprotein binding to NF-êB DNA probe, electrophoresis, autoradiography). Particulars: 0.1 ng/ml JBT3002 or 0.3 ng/ml MALP-2 for 20 or 40 minutes, FIG. 5. Format: cell-based, mouse. The procedure:
as §1
It is known that TLR signals activate IRAK, which is serine/threonine kinase, via an adapter molecule MyD88 and then activate MAP kinase and NF-êB (Immunity 11, 115-122, 1999). In addition, it is also known that a mycoplasma-derived lipoprotein/lipopeptide causes vital reaction via TLR2 and MyD88 signaling pathways (J. Immunol. 164, 554-557, 2000). Consequently, with wild-type, TLR6 knockout and TLR2 knockout mice, whether a bacteria-derived lipoprotein/lipopeptide activates intracellular signaling molecules was examined. Peritoneal macrophages (1×10^6 cells) of wild-type (wild-type) and TLR6 knockout (TLR6−/−) and TLR2 knockout (TLR2−/−) mice prepared in Example 2 were stimulated with 0.1 ng/ml JBT3002 or 0.3 ng/ml MALP-2 for 20 or 40 minutes, and nucleoproteins were extracted from macrophages of each mouse and incubated with a specific probe containing DNA binding site of NF-êB, then subjected to electrophoresis and visualized by autoradiography (FIG. 5).

Where [4] appears, read: macrophages from TLR6 knockout mouse (TLR6−/−).
Setting [5] is: macrophages from wild-type mouse.

As to lipopolysaccharide [LPS], in the experiment with peritoneal macrophages [1], the “TNFá in culture supernatant” value is reported as “approximately the same amount of TNFá as macrophages derived from a wild-type mouse”.

Take MALP-2: the “production amount of NO2^−” value in the experiment on peritoneal macrophages [2] (setting [4]) is “produced no TNF-á and NO2^−”; in the experiment on peritoneal macrophages [2] (setting [5]), “increased the production amounts of TNF-á (TNFá) and NO2^− (NO) in a manner dependent on doses”. Also, the “production amount of TNF-á” value in the experiment with peritoneal macrophages [3] (setting [4]) was “produced no TNF-á and NO2^−”; in the experiment with peritoneal macrophages [3] (setting [5]), “increased the production amounts of TNF-á (TNFá) and NO2^− (NO) in a manner dependent on doses”. Also, the “activation of NF-êB” value in the experiment with NF-êB (macrophages from TLR2 knockout mouse (TLR2−/−)) was “no activation was observed”; in the experiment on NF-êB (setting [4]) it was “no activation in response to MALP-2 was observed”; in the experiment on NF-êB (setting [5]), “activation of NF-êB in response to the stimulation with MALP-2 or JBT3002 was observed”.

Consider peptidoglycan [PGN], for which the “TNFá in culture supernatant” value with peritoneal macrophages [1] was “approximately the same amount of TNFá as macrophages derived from a wild-type mouse”.

For the molecule “OspA: B. burgdorferi-derived lipoprotein”, in the experiment with peritoneal macrophages [1], the “TNFá in culture supernatant” value is listed as “approximately the same amount of TNFá as macrophages derived from a wild-type mouse”.

B1: OspC: B. burgdorferi-derived lipoprotein (protein, UniProt Q07337 19-210, looked up)
Outer surface protein C: CNNSGKDGNTSANSADESVKGPNLTEISKKITDSNAVLLAVKEVEALLSSIDEIAAKAIGKKIHQNNGLDTENNHNGSLLAGAYAISTLIKQKLDGLKNEGLKEKIDAAKKCSETFTNKLKEKHTDLGKEGVTDADAKEAILKTNGTKTKGAEELGKLFESVEVLSKAAKEMLANSVKELTSPVVAESPKKP
As for B1, in the experiment with peritoneal macrophages [1], the “TNFá in culture supernatant” value was “approximately the same amount of TNFá as macrophages derived from a wild-type mouse”.
